Experimental data from the CheMixHub ionic liquid set.

Assay: xn = mol fraction of the nth substance listed

C[NH2+]CCC=C1c2ccccc2CCc2ccccc21.[Cl-] + CCCC[n+]1ccn(C)c1.[Br-] + O
viscosity [mPa·s], 100 kPa
Settings	288.15 K	298.15 K	308.15 K	318.15 K
x1 = 0.0001975, x2 = 0.0001801	1.159	0.927	0.763	0.646
x1 = 0.0002159, x2 = 0.00126	1.172	0.944	0.778	0.661
x1 = 0.0002212, x2 = 0.0007201	1.165	0.934	0.77	0.654
x1 = 0.0005439, x2 = 0.0001801	1.169	0.936	0.771	0.655
x1 = 0.0005594, x2 = 0.001259	1.182	0.953	0.787	0.671
x1 = 0.0005644, x2 = 0.0007199	1.176	0.943	0.779	0.664
x1 = 0.0009069, x2 = 0.0007196	1.187	0.952	0.788	0.674
x1 = 0.0009097, x2 = 0.00018	1.18	0.946	0.78	0.664
x1 = 0.0009344, x2 = 0.001259	1.193	0.963	0.796	0.68
x1 = 0.001275, x2 = 0.001258	1.204	0.973	0.805	0.689
x1 = 0.001278, x2 = 0.0001799	1.192	0.956	0.789	0.673
x1 = 0.001293, x2 = 0.0007194	1.199	0.961	0.797	0.682
x1 = 0.001648, x2 = 0.0007191	1.211	0.971	0.806	0.691
x1 = 0.001659, x2 = 0.0001799	1.204	0.967	0.798	0.681
x1 = 0.001665, x2 = 0.001258	1.216	0.984	0.814	0.698
x1 = 0.002, x2 = 0.0001798	1.217	0.978	0.807	0.689
x1 = 0.002031, x2 = 0.0007188	1.224	0.982	0.815	0.699
x1 = 0.002035, x2 = 0.001257	1.229	0.995	0.823	0.707
x1 = 0.002363, x2 = 0.0001797	1.23	0.989	0.816	0.697
x1 = 0.002378, x2 = 0.001257	1.243	1.006	0.832	0.715
x1 = 0.002383, x2 = 0.0007186	1.237	0.993	0.824	0.707
x1 = 0.002737, x2 = 0.0001797	1.244	1	0.826	0.705
x1 = 0.00275, x2 = 0.001256	1.257	1.018	0.842	0.723
x1 = 0.002759, x2 = 0.0007183	1.251	1.005	0.834	0.715
x1 = 0.003096, x2 = 0.001256	1.272	1.03	0.853	0.731
x1 = 0.003103, x2 = 0.0001796	1.258	1.012	0.836	0.713
x1 = 0.00311, x2 = 0.000718	1.265	1.019	0.845	0.723
x1 = 0.003471, x2 = 0.0001795	1.273	1.024	0.847	0.721
x1 = 0.003493, x2 = 0.001255	1.287	1.043	0.864	0.738
x1 = 0.003504, x2 = 0.0007178	1.28	1.033	0.856	0.731

CS(C)=O + CC(=O)[O-].CC[NH2+]CC
Settings	viscosity [mPa·s]
298.15 K, 101 kPa, x2 = 0	2.01

CCCC[N+](CCCC)(CCCC)CCCC.[Cl-] + Oc1ccccc1
Settings	viscosity [mPa·s]
323.15 K, 100 kPa, x1 = 0.167	37.2

CC(=O)[O-].CCCCCC[n+]1ccccc1 + O
electrical conductivity [S/m], 101 kPa
Settings	x1 = 0.8711	x1 = 0.8907	x1 = 0.9081	x1 = 0.9293	x1 = 0.9699	x2 = 0.007385
293.15 K	0.00457	0.00421	0.00389	0.00337	0.00259	0.00201
298.15 K	0.0076	0.00693	0.00609	0.00551	0.00409	0.00282
303.15 K	0.0127	0.0115	0.0102	0.009	0.00656	0.005
308.15 K	0.0171	0.0156	0.0139	0.0122	0.00887	0.00746
313.15 K	0.0256	0.0229	0.0209	0.0181	0.014	0.0112
318.15 K	0.0371	0.0331	0.03	0.0264	0.019	0.0155
323.15 K	0.0501	0.0451	0.041	0.0365	0.0271	0.0224
328.15 K	0.067	0.0608	0.0551	0.0496	0.0372	0.0318
333.15 K	0.091	0.081	0.0727	0.0639	0.0487	0.0414
338.15 K	0.124	0.111	0.101	0.0894	0.0694	0.0592
343.15 K	0.163	0.148	0.135	0.119	0.0952	0.0819

CCCC(C)O (configuration not stated) + CCCCCC[n+]1ccn(C)c1.O=[N+]([O-])[O-]
Settings	viscosity [mPa·s]
323.15 K, 100 kPa, x2 = 0	1.39

CCCCCCCCCCCC[N+](C)(C)Cc1ccccc1.[Cl-] + O
electrical conductivity [S/m], 101 kPa
Settings	293.15 K	298.15 K	303.15 K	308.15 K	313.15 K
x1 = 5.874e-05	0.0232	0.0261	0.0289	0.0318	0.0349
x1 = 8e-05	0.0313	0.0351	0.0389	0.0428	0.0469
x1 = 9.982e-05	0.0388	0.0434	0.0481	0.053	0.0579
x1 = 0.0001187	0.0459	0.0513	0.0569	0.0626	0.0686
x1 = 0.0001384	0.0531	0.0594	0.0658	0.0724	0.0792
x1 = 0.0001594	0.0603	0.0673	0.0744	0.0819	0.0899
x1 = 0.000182	0.0659	0.0734	0.0812	0.0897	0.0989
x1 = 0.0002056	0.0702	0.0783	0.087	0.0963	0.106
x1 = 0.0002284	0.0741	0.0827	0.092	0.102	0.113
x1 = 0.0002522	0.0778	0.0871	0.0969	0.108	0.12
x1 = 0.0002717	0.0809	0.0906	0.101	0.113	0.125
x1 = 0.0002895	0.0836	0.0937	0.105	0.117	0.13
x1 = 0.0003122	0.0872	0.0978	0.109	0.122	0.136

N#CCCCCC#N + CCCC[n+]1ccn(C)c1.O=S(=O)([N-]S(=O)(=O)C(F)(F)F)C(F)(F)F
Settings	electrical conductivity [S/m]
294.5 K, 100 kPa, x2 = 0.02785	0.29

COCCn1cc[n+](C)c1.N#C[S-] + O=C1CCCO1
101 kPa
Settings	electrical conductivity [S/m]	viscosity [mPa·s]
288.15 K, x1 = 0.7036	0.526	34.8
288.15 K, x1 = 1	0.223	86
293.15 K, x1 = 0.8038	0.505	39.2
298.15 K, x1 = 0.3001	1.63	4.18
298.15 K, x1 = 1	0.41	53
303.15 K, x1 = 0.3001	1.8	3.68
308.15 K, x1 = 0.6015	1.36	9.6
308.15 K, x1 = 0.9012	0.791	27.2
313.15 K, x1 = 0.1027	1.99	1.82
313.15 K, x1 = 0.5006	1.79	5.6
313.15 K, x1 = 0.7036	1.33	11.8
318.15 K, x1 = 0.3001	2.44	2.59
318.15 K, x1 = 0.4001	2.25	3.46
323.15 K, x1 = 0.1999	2.68	1.85
323.15 K, x1 = 0.4001	2.48	3.1
323.15 K, x1 = 0.5006	2.25	4.26
323.15 K, x1 = 0.7036	1.75	8.8
328.15 K, x1 = 0.9012	1.52	13.9
333.15 K, x1 = 0.1027	–	1.3
338.15 K, x1 = 0.6015	2.74	4.26
338.15 K, x1 = 0.7036	2.46	6
343.15 K, x1 = 0.5006	3.3	2.71
343.15 K, x1 = 0.7036	2.7	5.4

CC[n+]1ccn(C)c1.[Cl-] + CC[n+]1ccn(C)c1.F[B-](F)(F)F
Settings	viscosity [mPa·s]
293 K, 101 kPa, x1 = 0.2627	92.4

CC(N)C(=O)[O-].CCCC[n+]1ccn(C)c1C + O
viscosity [mPa·s], 100 kPa
Settings	x1 = 0.1003	x1 = 0.3009	x1 = 0.6987	x1 = 1
293.15 K	22.3	–	200	370
313.15 K	–	–	70	–
318.15 K	–	18.9	–	87

CCCC[n+]1ccn(C)c1.[Br-] + [Cl-].[Li+] + O
298.15 K, 100 kPa
Settings	viscosity [mPa·s]
x2 = 0, x3 = 0.9487	2.21
x2 = 0.008492, x3 = 0.9402	2.41
x2 = 0.01695, x3 = 0.9318	2.56
x2 = 0.02496, x3 = 0.9237	2.73
x2 = 0.02656, x3 = 0.9221	2.81
x2 = 0.03322, x3 = 0.9155	3
x2 = 0.0408, x3 = 0.9079	3.21

CCCC[n+]1ccn(C)c1.[Br-] + C[C@@H](O)[C@H](N)C(=O)O + O
viscosity [mPa·s], 101.3 kPa
Settings	293.15 K	298.15 K	303.15 K	308.15 K	313.15 K
x2 = 0, x1 = 0.0007203	–	–	–	–	0.674
x2 = 0.0003632, x1 = 0.00072	1.028	0.918	0.825	0.748	0.682
x2 = 0.0003679, x1 = 0.001439	1.053	0.943	0.85	0.773	0.707
x2 = 0.0007261, x1 = 0.0007198	1.034	0.923	0.829	0.751	0.685
x2 = 0.0007318, x1 = 0.001438	1.059	0.948	0.854	0.776	0.71
x2 = 0.001087, x1 = 0.0007195	1.038	0.927	0.834	0.755	0.689
x2 = 0.001097, x1 = 0.001438	1.064	0.952	0.859	0.78	0.714
x2 = 0.001451, x1 = 0.0007192	1.043	0.932	0.838	0.76	0.693
x2 = 0.001461, x1 = 0.001437	1.07	0.957	0.863	0.785	0.718
x2 = 0.001813, x1 = 0.000719	1.048	0.936	0.843	0.764	0.698
x2 = 0.001828, x1 = 0.001437	1.075	0.961	0.868	0.789	0.723
x2 = 0.002175, x1 = 0.0007187	1.053	0.941	0.847	0.769	0.702
x2 = 0.002191, x1 = 0.001436	1.079	0.966	0.872	0.794	0.727
x2 = 0.002537, x1 = 0.0007185	1.058	0.946	0.852	0.773	0.707
x2 = 0.002557, x1 = 0.001436	1.085	0.97	0.877	0.798	0.732

CCCC[N+](CCCC)(CCCC)CCCC.[Cl-] + CC(C)[C@H](N)C(=O)O
100 kPa
Settings	electrical conductivity, 313.15 K [S/m]	electrical conductivity, 323.15 K [S/m]	electrical conductivity, 333.15 K [S/m]	electrical conductivity, 343.15 K [S/m]	electrical conductivity, 353.15 K [S/m]	viscosity, 313.15 K [mPa·s]	viscosity, 323.15 K [mPa·s]	viscosity, 333.15 K [mPa·s]	viscosity, 343.15 K [mPa·s]	viscosity, 353.15 K [mPa·s]
x1 = 0.9	0.041	0.059	0.082	0.0989	0.123	800	460	258	145	82
x1 = 0.9091	0.029	0.041	0.055	0.0751	0.095	900	510	256	146	82
x1 = 0.9167	0.038	0.05	0.07	0.0901	0.116	587	313	196	105	63

CCOCC[n+]1ccn(C)c1.O=S(=O)([N-]S(=O)(=O)C(F)(F)F)C(F)(F)F + O
101 kPa, x1 = 0.8424
Settings	viscosity [mPa·s]
283 K	68.1
298.1 K	34
